# What was measured:
# [1] = tested on: human marrow derived mesenchymal stem cells (hMSCs); test: Peptide immobilisation studies, hMSC proliferation (CyQuant) and FACS; assay type: cell-based; details: alanine substitution study; for Mean cell number: N-terminally tethered, seeding 5,000 cells per well, CyQuant, mean +/− SEM, n = 3
# From the text: Could the antiproliferative activity in vitro of EPL001 in solution be more predictably evoked and investigated more readily if the peptide is instead tethered to the cell culture’s substratum? […] In the first study EPL001 was immobilised by either its N terminus or C terminus and human stem cells exposed accordingly. This followed a confirmation of dissolved EPL001’s antiproliferative activity in the same laboratory (JAH). In the second study, aa sections of EPL001 were substituted with alanine strings prior to tethering, to define a functional biological motif. Into the base of each well of a 24-well plate was inserted a glass coverslip (13mm diameter, borosilicate glass, SLS, Nottingham, UK), upon the upper surface of which had been immobilised an individual peptide using a bioconjugate technique. During preparation of the coverslips, the surfaces were modified with carboxyl (−COOH) or amine (−NH2) groups separately using a published method. The carboxyl on the coverslips or at the end of the peptide sequence were reacted with NHS in the presence of EDC, resulting in a semi-stable NHS ester, which could then be reacted with primary amines (−NH2) on the coverslips or at the end of the peptide sequences to form amide crosslinks. For the carboxyl modified coverslips, the final peptide grafted on to the surface via its NH2 terminus was in the form Glass-CO-NH-Peptide. For the amine modified coverslips, the final peptide grafted on to the surface via its COOH terminus was in the form Glass-NH-CO-Peptide. The concentration of the peptides across the glass was approximately […]. Uncoated glass was used as the reference control. Treatments were in triplicate (i.e. n = 3). The cells used were human marrow derived mesenchymal stem cells (hMSCs, Lonza, Slough, UK, cat No PT-2507). In the EPL001-terminus study they were seeded at 10,000 cells per well; in the alanine substitution study the density was 5,000 cells per well. The cells were maintained in DMEM with 10% FSC. EPL001 and three alanine-substituted versions of it were deployed separately: MKPLTGKVKEFNNI (EPL001), AAAAAGKVKEFNNI (EPL590), MKPLTAAAAEFNNI (EPL545) and MKPLTGKVKEAAAA (EPL104). The peptides in the alanine substitution study were N-terminally tethered to the substrate. Cell numbers were measured by CyQuant® (Invitrogen, Paisley, UK). […] Statistical analysis was by ANOVA using SPSS software.
# Four 14-aa peptides were synthesised: MKPLTGKVKEFNNI (EPL001), AAAAAGKVKEFNNI (EPL590), MKPLTAAAAEFNNI (EPL545) and MKPLTGKVKEAAAA (EPL104). The peptides were generated from l-isomer amino acids by solid phase peptide synthesis (Model 9050, Milligen). All peptides were N-terminally tethered to the substrate by a bioconjugate technique. MSCs were derived from human bone marrow and maintained in DMEM with 10% FSC. Cells were seeded on peptide treated surfaces including a glass control in a 24-well plate with cell density 5 x 10^3. The growth inhibitory activity was examined via cell proliferation assays and cell cycle analysis, using PI and Ki-67 staining. The cell phenotype and viability (7-AAD) were analysed by flow cytometry.
# LNCaP cells = test: MTS viable cell assay, LNCaP (Epistem); assay type: cell-based, human; details: over 72h, single dose level
# Procedure: (§1) Further assays on human prostate cancer cells were conducted at a contract research organisation (Epistem, Manchester, UK). LNCaP or DU145 cells seeded at 3,000 cells/well across a 96-well plate were cultured in RPMI (phenol red free), 10% FCS, 1% sodium pyruvate, Pen/strep and L-glutamine for 24h before exposure to peptides, at a single dose level in the case of LNCaPs or multiple dose levels in the case of DU145s. (For dose levels see Results.) Controls received vehicle (1% PBS). For the DU145s peptide administration was repeated after 24h. 72h after the first administration (DU145s) or only administration (LNCaP) total viable cell numbers were measured colorimetrically (MTS) using a CellTiter 96 AQueous One Solution Cell Proliferation Assay (Promega, Southampton, UK), following manufacturer’s instructions. Briefly, the media on the plates was replaced with the CellTiter reagent diluted 1:5 in DMEM. The plates were returned to the incubator for 3 hours before reading absorbance at 492 nm on a FLUORstar OPTIMA (BMG Labtech). CellTiter data are the absorbance minus background values (CellTiter plus DMEM), expressed as (OD mean +/− SEM). Statistical analysis was by ANOVA, Dunnett’s multiple comparisons test.
# mouse renal cell = details: in words; cited from earlier work
# human dental pulp cells = details: 5μM (single starting dose) in the cell medium; over 7 days; cited from earlier work
# From the text: EPL001 is a found sequence, as described in the Introduction. As a 14mer synthetic peptide it has been represented elsewhere as a minimized ball and stick model in silico [9]. […] An anti-EPL001 antibody administered alone potentiated compensatory renal grow ...
# PC3 cells = test: MTS colorimetric viable cell assay, PC3; assay type: cell-based, human; details: PC3; 30 μM; 27h; MTS, 492 nm; triplicate
# Procedure: (§2) Assays involving a range of peptides from 14mer down to 6mers assessed total viable PC3 or PNT2 cells using a 96-well plate MTS colorimetric assay (CellTiter 96 Aqueous One Solution Cell Proliferation Assay, Promega, Southampton, UK), with absorbance measured at 492 nm. Cells were seeded at 8,000 per well and grown for 27h. Peptides were administered at the outset to a final concentration of 30 μM (in 2 μl) to samples in triplicate. (A higher dosage was used than in the 14mer peptides study to shorten the timecourse of response.) Controls received buffer. Data are OD mean +/ − SEM, with statistical analysis by two tailed t-test. A time course study of the 14mers on PC3s, using the same technique, involved measurements at 24h and 48h.
# (§3) Fig 5 Effects of a range of peptides on human prostate cancer cell growth in vitro. Assays involved a range of peptides from 14mers down to 6mers (Table 1), with viable cells assessed using a 96-well plate MTS colorimetric assay. Absorbance measured at 492 nm. Cells were seeded at 8,000 per well and grown for 27h. Peptides were administered at the outset to a final concentration of 30 μM (in 2 μl) to samples in triplicate. Controls received buffer. Data are OD mean +/- SEM, with statistical analysis by two tailed t-test. * p<0.05; **p<0.025.
# PNT2 cells = test: MTS colorimetric viable cell assay, PNT2; assay type: cell-based, human; details: 30 μM, 27h, 492 nm, triplicate
# Procedure: as §2, §3
# DU145 cells = test: MTS viable cell assay, DU145 (Epistem); assay type: cell-based, human; details: DU145, 72h
# Procedure: as §1
# [2] = tested on: MCF 7 human breast cancer cells; details: in words; EPL120 over 72h, dose range 0.04 nM– 4 μM; cited from earlier work
# rat bone marrow cells = test: Bone marrow cell assay, time-lapse cell counts over 24h; assay type: cell-based; details: EPL001, EPL030 at 6μM, EPL120 at 5μM final concentration, in words (Fig 6)
# Procedure: The method has been described previously at length. Bone marrow cells, consisting of various cell types including mesenchymal stem cells and fibroblasts, were cultured from adult male rats (Rattus norvegicus, SD strain). These cells were passaged from a growing primary stock in a T75 tissue culture flask (Sarstedt) into a 48 well tissue culture plate (IWAKI), with a cell density of 1 x 10^5/ml. The cell culture media, henceforth referred to as ‘supplemented a-MEMS,’ comprised α-MEMS media supplemented with 10% FCS and 1% penicillin/streptomycin (all Life Technologies, Carlsbad, CA, US). On the day of peptide addition to the cells, the supplemented α-MEMS was gently removed and fresh supplemented α-MEMS added, with 10% test material by volume to achieve micromolar concentrations, untreated controls receiving just fresh supplemented α-MEMS. (For dose levels see legends in respective result figures) All samples were filter sterilised using a Millex-GV […] syringe filter unit (Merck, Kenilworth, NJ, USA). The cells were imaged for 24 h using an incubated Zeiss Axiovert 135M microscope with a Prior Proscan II motorised stage, at 37 °C with a 5% CO2 in air feed. Each well of the 48-well tissue culture plate was then imaged for 24h every 5 min using Metamorph software (MDS Analytical Technologies, Wokingham, UK), with each well having four fields of view. The viability and cell numbers were reviewed by analysing the images captured over the 24h period and cell counts were taken at selected time points using the Metamorph software.
# Fig 6 Bone marrow cells in culture exposed to long peptides. Cells were counted over 24h after exposure to the 14mer peptide EPL001 or its scrambled-sequence control EPL030 at 6μM final concentration or to the 20mer EPL120 at 5μM final concentration, compared to peptide-untreated controls.
# Fig 7 Bone marrow cells in culture exposed to hexapeptides. Cells were counted over 24h after exposure to either EPL016 (= MKPLTG, the ‘Front 6’ of the 14mer EPL001) or EPL036 (= IEPVFT, the ‘Back 6’ of EPL030, the scrambled-sequence control of EPL001) at 1μM final concentration, compared to peptide-untreated controls.
Substance,Reduction in test mean OD versus the vehicle control mean (LNCaP cells),Difference in percentage terms between control and test OD means (PC3 cells),Difference in percentage terms between control and test OD means (PNT2 cells),Test mean OD vs control mean (DU145 cells; 0.015 μM),Test mean OD vs control mean (DU145 cells; 0.15 μM),Test mean OD vs control mean (DU145 cells; 1.5 μM),Test mean OD vs control mean (DU145 cells; 15 μM),Test mean OD vs control mean (DU145 cells; 150 μM (highest concentration)),also measured
"AAAAAGKVKEFNNI [EPL590, Substituted EPL001; alanines 1–5]",−21.4%,,,,,,,,"Cell number vs Glass ([1]; Day 7): 16%; Cell number vs Glass ([1]; Day 14): −23%; Mean cell number ([1]; Day 7): 11,805 +/−4,028; Mean cell number ([1]; Day 14): 20,347 +/−2,264"
"KGNEVMKLFPTINE [EPL010, Scrambled control (Haylor et al, 2009)]",,,,,,,,,Activity in a mouse renal cell assay in vitro (mouse renal cell): inactive
"KVKEFNNI [EPL018, KVKEFNNI, EPL001 Back 8]",,,,,,,,,Reduction in cell numbers (human dental pulp cells): ~ 17%
MKPNFN [EPL600],−35.1%,−27.3%,−39.7%,+8.6%,−0.1%,−8.4%,−7.1%,−16.9%,
"EPL120: EPL001 Edman sequence tentatively extended 6 further reads, to make a 20mer (MKPLTGKVKEFNNIKGFGVI)",,,,,,,,,Inhibition of IGF-1 stimulated growth in MCF-7 cell numbers [2]: dose-dependent inhibition; Effect on bone marrow cells in culture (rat bone marrow cells): pro-apoptotic
MKPVFN [EPL601],−16.0%,−28.0%,−33.2%,+6.9%,−4.3%,−10.4%,−11.4%,−14.3%,

# Reference: publication PMC9714824, “Hexapeptides from mammalian inhibitory hormone hunt activate and inactivate nematode reproduction” (PLOS ONE, 2022)
